Source: patent publication US5103014A, “Certain 3,3'-[[[(2-phenyl-4-thiazolyl)methoxy]phenyl]methylene]dithiobis-propano ic acid derivatives” (American Home Products Corporation, priority 1990, dated 1992)
pIC50: −log10 of the molar value. Where two headings read alike, the source gives them in different places.

Columns and labels:
[1] = system: LTD4 induced bronchoconstriction; assay: In vivo inhibition of LTD4 induced bronchospasm in guinea pigs (exogenously administered leukotrienes); design: species or system guinea pig; settings: Cavia porcellus, 10 minutes before induction of bronchospasm (LTD4)
[2] = system: acute inflammatory response (carrageenan paw edema); assay: Rat carrageenan paw edema assay; format: in vivo; settings: po; for inhibition in vivo at 50 mg/kg: 50 mg/kg peroral, 1 hour prior to carrageenan, edema at 3 hours
Description: The compounds of the invention are tested in the rat carrageenan paw edema assay to determine their ability to inhibit the acute inflammatory response. 140-180 gm male Sprague-Dawley rats, in groups of 6 animals, are injected subcutaneously in the right paw with 0.1 ml of 1% carrageenan at zero time. Mercury plethysmographic readings (ml) of the paw are made at zero time and 3 hours later. Test compounds are suspended or dissolved in 0.5% methylcellulose and given perorally 1 hour prior to carrageenan administration. The increase in paw volume (edema in ml.) produced by the carrageenan is measured. […] Unpaired Student's t-test is used to determine statistical significance.

[3] = system: 5,12-diHETE synthesis by rat glycogen-elicited polymorphonuclear leukocytes; assay: Inhibition of 5,12-diHETE synthesis by rat glycogen-elicited polymorphonuclear leukocytes; format: cell-based; settings: Leukocyte, rat PMN
Description: This is especially true with respect to 5,12-diHETE, which is also denoted as LTB4 [see Ford-Hitchinson, J. Roy. Soc. Med., 74, 831 (1981)]. The assay of this Example measures the ability of the compounds of the invention to inhibit the synthesis of 5,12-diHETE by rat glycogen-elicited polymorphonuclear leukocytes.
(§1) Peritoneal PMN are obtained from female Wistar rats (150-250 g) that received an i.p. injection of 6% glycogen (10 ml). After 24 hours, rats are killed by CO2 asphyxiation and peritoneal cells are harvested by peritoneal lavage using Ca^++ and Mg^++ free Hanks' balanced salt solution (HBSS). The peritoneal exudate is centrifuged at 400 g for 10 minutes. After centrifugation, the lavaged fluid is removed and the cell pellet is resuspended in HBSS containing Ca^++ and Mg^++ and 10 mM L-cysteine at a concentration of 2×10^7 cells/ml. To 1 ml portions of cell suspension, test drugs or vehicle are added and incubated at 37° C. for 10 minutes. Following this preincubation, the calcium ionophore (10 μM), A23187, is added together with 0.5 μCi [^14 C] arachidonic acid and further incubated for 10 minutes. The reaction is stopped by the addition of ice cold water (3 ml) and acidification to pH 3.5. Lipoxygenase products are then extracted twice into diethyl ether. The pooled ether extracts are evaporated to dryness under nitrogen and the residue is redissolved in a small volume of methanol and spotted on aluminum backed pre-coated thin layer chromatographic plates. The samples are then co-chromatographed with authentic reference 5,12-diHETE in the solvent system-hexane:ether:acetic acid (50:50:3). After chromatography, the areas associated with 5,12-diHETE standard are identified by autoradiography, cut out and quantitated by liquid scintillation.
Results are expressed as the 50% Inhibitory concentration, or as percent inhibition at a given.

[4] = system: TxB2 synthesis (cyclooxygenase); assay: Inhibition of synthesis of cyclooxygenase oxidation product TxB2 (rat polymorphonuclear leukocytes); format: cell-based; settings: Leukocyte, rat PMN
Description: as §1
The procedure of Example 17 is also employed for the determination of the ability of the compounds of the invention to inhibit the synthesis of the arachidonic acid cyclooxygenase oxidation product TxB2.
In this assay, the procedure of Example 17 is carried out as described. However, in order to determine cyclooxygenase activity, the samples are cochromatographed with authentic reference TxB2 in the solvent system ethyl acetate:formic acid (80:1) and the upper phase of ethyl acetate:isoctane:acetic acid:water (110:50:20:100). After chromatography, the areas associated with TxB2 standard are identified by autoradiography, cut out and quantitated by liquid scintillation techniques.
The results are calculated as in Example 12 and presented below: […]

[5] = target: T1, LTD4 (contraction of isolated guinea pig trachea) (Cavia porcellus, UniProt Q2NNR5); assay: Isolated guinea pig trachea assay, LTD4 antagonist activity; format: cell-based; settings: read-out: pKB ± S.E. (converted)
T1 construct: from tissue; host or cells: isolated tracheal rings of male Hartley guinea pigs
T1 sequence (Q2NNR5 1-340): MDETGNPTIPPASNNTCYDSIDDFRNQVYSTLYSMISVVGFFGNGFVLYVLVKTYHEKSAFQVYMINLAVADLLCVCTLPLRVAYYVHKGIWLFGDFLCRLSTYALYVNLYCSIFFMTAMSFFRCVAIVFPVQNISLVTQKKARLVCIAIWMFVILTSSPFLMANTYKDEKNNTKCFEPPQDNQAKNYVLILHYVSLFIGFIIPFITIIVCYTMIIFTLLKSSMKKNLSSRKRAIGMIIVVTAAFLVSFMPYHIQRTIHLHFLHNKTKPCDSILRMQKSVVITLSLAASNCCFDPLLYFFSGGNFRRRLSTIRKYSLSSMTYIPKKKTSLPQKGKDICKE
Description: The compounds of the invention are tested in the isolated guinea pig trachea assay to assess their LTD4 antagonist activity. Male Hartley guinea pigs (350-400 g) are euthanized by a blow to the head, the neck is opened and the trachea removed. The trachea is maintained in aerated physiological salt solution, cleared of connective tissue and fat and cut into rings approximately 2 mm in width (usually containing two cartilaginous segments per ring). Two pieces of silk suture are then passed through the lumen of the tracheal ring and are tied around the cartilage, one on each side of the trachealis muscle. The tracheal ring is suspended between a glass hook and a force displacement transducer in a 10 ml organ bath for measurement of isometric tension. Tissues are maintained at 37° C. in aerated (95% O2 /5% CO2) physiological salt solution of the following composition: […] The tracheal rings are maintained at 2 g resting tension and equilibrated for 45 minutes (with frequent washing and readjustment of resting tension). The tracheal rings are first contracted by the addition of carbachol (3×10^-6 M), to determine tissue responsiveness and establish a reference contraction. On attainment of a stable level of contraction (approximately 30 minutes), the tissues are washed several times until baseline tension has been restored and then re-equilibrated for 30 minutes. The tissues are then incubated for 45 minutes with a test antagonist (either 1×10^-6 M or 1×10^-5 M) or 10 μl of an appropriate solvent control (control, non-treated). One tissue in each group serves as the control. Twenty minutes prior to the construction of the LTD4 cumulative concentration-response curve, L-[…]×10^-2 M final bath concentration) is added to inhibit bioconversion of LTD4 to LTE4. Only one LTD4 concentration-response curve is constructed in each tissue. All responses to LTD4 are calculated as a percentage of the reference contraction to carbachol. LTD4 antagonist activity is determined by comparison of the concentration response curves of LTD4 in the presence and absence of antagonist. Assessment of the relative rightward shift of the antagonist treated curve relative to the solvent (control) treated tissue is calculated as a concentration ratio (Eq. A) and used in subsequent calculations to derive an antagonist pKB value (Eqs B&C). In the event that the maximum response to LTD4 is depressed, the EC50 for that particular curve is determined, an "apparent" pKB reported, and the compound reported as "not-competitive."

[6] = A23187 10 μM, read-out: 50% Inhibitory Concentration (IC50)
[7] = antagonist concentration 1 × 10^-5 M
[8] = antagonist concentration 1 × 10^-6 M

Row | Structure (SMILES) | inhibition in vivo at 25 mg/kg ([1]; intraduodenal, intraduodenally) [%] | inhibition in vivo at 50 mg/kg [2] [%] | other results
1 | COc1ccc(-c2nc(COc3cccc(NS(=O)(=O)C(F)(F)F)c3)c(C)o2)cc1 [Example 1, 1,1,1-Trifluoro-N-[3-[[2-(4-methoxyphenyl)-5-methyl-4-oxazolyl]methoxy]phenyl]methanesulfonamide] | 24 | 34 | –
2 | Cc1oc(-c2ccccc2)nc1COc1cccc(NS(=O)(=O)C(F)(F)F)c1 [Example 2, 1,1,1-Trifluoro-N-[3-[(5-methyl-2-phenyl-4-oxazolyl)methoxy]phenyl]methanesulfonamide] | 56 | 18 | –
3 | O=S(=O)(Nc1ccccc1OCc1csc(-c2ccccc2)n1)C(F)(F)F [Example 4, 1,1,1-Trifluoro-N-[2-[(2-phenyl-4-thiazolyl)methoxy]phenyl]methanesulfonamide] | 10 | – | –
4 | c1ccc(-c2nc(COc3cccc(Cc4nnn[nH]4)c3)cs2)cc1 [Example 5, 5-[[3-(2-Phenyl-4-thiazolylmethoxy)phenyl]methyl]-1H-tetrazole] | 69 | – | –
5 | CCN(CC)C(=O)N(C)CC(O)c1cccc(OCc2csc(-c3ccccc3)n2)c1 (stereo not shown) [Example 6, N,N-Diethyl-N'-[2-hydroxy-2-[3-(2-phenyl-4-thiazolylmethoxy)phenyl]ethyl]-N-methylurea] | 47 | 57 | –
6 | O=S(=O)(Nc1cccc(OCc2cccc(-c3ccccc3)n2)c1)C(F)(F)F [Example 7, 1,1,1-Trifluoro-N-[3-[(2-phenyl-6-pyridinyl)methoxy]phenyl]methanesulfonamide] | 68 | – | –
7 | Cc1ccc(S(=O)(=O)NC(=O)c2cccc(OCc3csc(-c4ccccc4)n3)c2)cc1 [Example 8, N-[(4-Methylphenyl)sulfonyl]-3-[(2-phenyl-4-thiazolyl)methoxy]benzamide] | 62 | 51 | inhibition at 10 µM ([3]; 10 μM): 55%; inhibition at 10 µM ([4]; 10 μM): 44%
8 | O=S(=O)(Nc1cccc(OCc2csc(-c3ccc(Cl)cc3)n2)c1)C(F)(F)F [Example 9A, 1,1,1-Trifluoro-N-[3-[[2-(4-chlorophenyl)-4-thiazolyl]methoxy]phenyl]methanesulfonamide] | 54 | 60 | pIC50 [3, 6]: 5.28; pIC50 [4, 6]: 5.15
9 | O=S(=O)(Nc1cccc(OCc2csc(-c3ccccc3F)n2)c1)C(F)(F)F [Example 9C, 1,1,1-Trifluoro-N-[3-[[2-(2-fluorophenyl)-4-thiazolyl]methoxy]phenyl]methanesulfonamide] | 73 | 53 | inhibition in vivo at 10 mg/kg ([1]; po, 10 mg/kg, intragastrically): 89%
10 | O=S(=O)(Nc1cccc(OCc2csc(-c3c(F)cccc3F)n2)c1)C(F)(F)F [Example 9D, 1,1,1-Trifluoro-N-[3-[[2-(2,6-difluorophenyl)-4-thiazolyl]methoxy]phenyl]methanesulfonamide] | 72 | 37 | –
11 | O=S(=O)(Nc1cccc(OCc2csc(-c3ccc(C(F)(F)F)cc3)n2)c1)C(F)(F)F [Example 9E, 1,1,1-Trifluoro-N-[3-[[2-(4-trifluoromethylphenyl)-4-thiazolyl]methoxy]phenyl]-methanesulfonamide] | – | 66 | –
12 | O=S(=O)(Nc1cccc(OCc2csc(-c3cccc(C(F)(F)F)c3)n2)c1)C(F)(F)F [Example 9F, 1,1,1-Trifluoro-N-[3-[[2-(3-trifluoromethylphenyl)-4-thiazolyl]methoxy]phenyl]methanesulfonamide] | 50 | 23 | –
13 | O=S(=O)(Nc1cccc(OCc2csc(Cc3ccccc3)n2)c1)C(F)(F)F [Example 9I, 1,1,1-Trifluoro-N-[3-[[2-(benzyl)-4-thiazolyl]methoxy]phenyl]methanesulfonamide] | 94 | 22 | inhibition in vivo at 25 mg/kg ([1]; po, intragastrically): 47%
14 | COC(=O)CCSC(SCCC(=O)OC)c1cccc(OCc2csc(-c3ccccc3)n2)c1 [Example 12] | – | – | Kb [5, 7]: 724 nM
15 | COC(=O)CCSC(SCCC(=O)N(C)C)c1cccc(OCc2csc(-c3ccccc3)n2)c1 (stereo not shown) [Example 13, 3-[[[[3-(Dimethylamino)-3-oxopropyl]thio][[(2-phenyl-4-thiazolyl)methoxy]phenyl]methyl]thio]propanoic acid methyl ester] | – | – | Kb [5, 8]: 44.7 nM
16 | CN(C)C(=O)CCSC(SCCC(=O)N(C)C)c1cccc(OCc2csc(-c3ccccc3)n2)c1 [Example 14, 3,3'-[[[3-[(2-Phenyl-4-thiazolyl)methoxy]phenyl]methylene]dithio]bis[N,N-dimethylpropanamide]] | – | – | Kb [5, 8]: 324 nM
17 | O=C(O)CCSC(SCCC(=O)O)c1cccc(OCc2csc(-c3ccccc3)n2)c1 [Example 15, 3,3'-[[3-[(2-Phenyl-4-thiazolyl)methoxy]phenyl]methylene]dithiobis[propanoic acid]] | – | – | Kb [5, 7]: 912 nM
18 | CN(C)C(=O)CCSC(SCCC(=O)O)c1cccc(OCc2csc(-c3ccccc3)n2)c1 (stereo not shown) [Example 16, 3-[[[[3-(Dimethylamino)-3-oxopropyl]thio][3-[(2-phenyl-4-thiazolyl)methoxy]phenyl]methyl]thio]propanoic acid] | – | – | Kb [5, 8]: 72.4 nM
19 | COc1ccc2c(c1)c(CC(=O)O)c(C)n2C(=O)c1ccc(Cl)cc1 [Indomethacin, reference compound] | – | – | ED50 ([2]; 3 h, read-out: Oral ED50 (95% C.L.)): 3.7 mg/kg
